The target of assay [1] is recombinant human PKR protein (Homo sapiens, UniProt P19525). Description: Protein kinase R (PKR) inhibitory capacity, 33P-ATP filter assay. Type of assay: biochemical. To be noted: 15 uM [gamma-33P-ATP], 40 minutes, room temperature. As for the experimental part: <Experimental Example 4> Evaluation of Protein Kinase R (PKR) Inhibitory Capacity
A recombinant human PKR protein was mixed with the compound in a reaction solution (8 mM MOPS pH 7.0, 0.2 mM EDTA, 20 uM RSRSRSRSRSRSRSR, 10 mM Magnesium acetate, 15 uM [gamma-33P-ATP]) and reacted at room temperature for 40 minutes. Then, the reaction was terminated by adding phosphoric acid (0.5%) to the reaction mixture, and 10 ul of the reaction solution was dropped onto a P30 filter. The filter was washed four times in a 0.425% phosphoric acid solution for 4 minutes, then washed once more in methanol, dried, and the PKR activity was measured by scintillation counting. […] The compound was diluted by 1/3 from the highest concentration of 1 uM and treated with a total of 9 concentrations to evaluate the degree of inhibition.

The target in the next assay is T1, phosphorylated GCN2 (Homo sapiens, UniProt Q9P2K8).
T1 construct: endogenous in cells; host or cells: HT-1080
Briefly: Inhibition of phosphorylated GCN2 under amino acid deficiency in HT-1080 cells, Western blot. The assay is classed as cell-based. The note with it: compound 50 nM, 24 hours; for Phospho-GCN2 inhibition: symbols ◯ / X not defined. As for the experimental part: <Experimental Example 5> Evaluation of Inhibitory Efficacy of ISR-Related Kinase GCN2 Under Amino Acid Deficiency Condition Using Western Blot
HT-1080 cells, a human fibrosarcoma cell line, were cultured in RPMI-1640 medium supplemented with 10% FBS, penicillin (penicillin; 100 IU/ml), and streptomycin (streptomycin; 100 μg/ml). Cells (1×10^6 cells/ml) were seeded onto 100 mm plates (polypropylene tissue culture plate) and incubated for 24 hours in a 37° C., 5% CO2 incubator before being used for experiments.
The following method was used to achieve amino acid deficiency conditions in cells. After 24 hours of cell culture, the cells were cultured in amino acids and L-glutamine-free RPMI-1640 medium supplemented with 10% FBS, penicillin (100 IU/ml), and streptomycin (100 μg/ml). After 24 hours of cell culture in RPMI-1640 without amino acids and L-glutamine, the compound prepared at a concentration of 50 nM was dispensed onto each plate and cultured for 24 hours in a 37° C., 5% CO2 incubator.
In order to measure the signal transduction inhibitory efficacy of GCN among the ISR-related kinases according to the present invention, the following experiment was performed using SDS-PAGE. The fibrosarcoma cell line HT-1080 cells cultured on plates as described above were washed with PBS after removing the culture medium. After removing PBS, the cells were lysed by adding a radio-immunoprecipitation assay buffer (RIPA buffer) containing 50 mM Tris (pH 7.4), 150 mM NaCl, 1% NP-40, 0.5% sodium deoxycholate, 2 mM sodium fluoride, 2 mM EDTA, 0.1% SDS, and a protease/phosphatase inhibitor cocktail to the plate. After centrifugation at 4° C., 13,000×g for 15 minutes, the protein in the upper layer was collected, and the protein concentration was measured at 562 nm using BCA (bicinchoninc acid) reagent, and the amount of protein in all samples was prepared at 20-50 μg.
After making the total volume the same using the sample buffer and RIPA buffer, it was heated at 97° C. for 5 minutes. Then, electrophoresis was performed on 8% or 12% SDS-PAGE at 80 V for 30 minutes and at 160 V for 1 hour and 30 minutes. After electrophoresis, the SDS-PAGE gel was transferred to an NC membrane (nitrocellulose membrane) at 90 V for 2 hours. The NC membrane was placed in TBST (tris buffer saline tween-20; 20 mM tris, 137 mM sodium chloride, 0.1% tween-20, pH 8.0) containing 5% non-fat skim milk, placed on a shaker, and reacted at room temperature for 1 hour.
Each primary antibody was diluted in TBST containing 5% non-fat skim milk, poured onto the NC membrane, and reacted at 4° C. for 24 hours. The membrane was washed three times for 10 minutes each with TBST. The secondary antibodies (anti-rabbit IgG and anti-mouse IgG labeled with horseradish peroxidase (HRP)) were diluted in TBST containing 5% non-fat skim milk and reacted with the membrane at room temperature for 1 hour. Upon completion of the reaction, the membrane was washed three times with TBST for 10 minutes each. Protein expression bands were detected by a chemiluminescence image analyzer (Image Quant LAS 500) after the ECL solution was reacted with the NC membrane.
GCN2, a key kinase of the integrated stress response (ISR), is phosphorylated in response to amino acid deficiency.
In general terms: A western blot detects proteins with antibodies after separation by electrophoresis.

Assay [2] has as its target recombinant human GCN2 protein (Homo sapiens, UniProt Q9P2K8). Briefly: General control nonderepressible 2 (GCN2) inhibitory capacity, 33P-ATP filter assay. Type of assay: biochemical. The note with it: recombinant human GCN2, 70 uM [gamma-33P-ATP], 40 minutes, room temperature.

In general, IC50 refers to the concentration needed to halve the response being measured.

Chain of recombinant human GCN2 protein (Q9P2K8 whole entry): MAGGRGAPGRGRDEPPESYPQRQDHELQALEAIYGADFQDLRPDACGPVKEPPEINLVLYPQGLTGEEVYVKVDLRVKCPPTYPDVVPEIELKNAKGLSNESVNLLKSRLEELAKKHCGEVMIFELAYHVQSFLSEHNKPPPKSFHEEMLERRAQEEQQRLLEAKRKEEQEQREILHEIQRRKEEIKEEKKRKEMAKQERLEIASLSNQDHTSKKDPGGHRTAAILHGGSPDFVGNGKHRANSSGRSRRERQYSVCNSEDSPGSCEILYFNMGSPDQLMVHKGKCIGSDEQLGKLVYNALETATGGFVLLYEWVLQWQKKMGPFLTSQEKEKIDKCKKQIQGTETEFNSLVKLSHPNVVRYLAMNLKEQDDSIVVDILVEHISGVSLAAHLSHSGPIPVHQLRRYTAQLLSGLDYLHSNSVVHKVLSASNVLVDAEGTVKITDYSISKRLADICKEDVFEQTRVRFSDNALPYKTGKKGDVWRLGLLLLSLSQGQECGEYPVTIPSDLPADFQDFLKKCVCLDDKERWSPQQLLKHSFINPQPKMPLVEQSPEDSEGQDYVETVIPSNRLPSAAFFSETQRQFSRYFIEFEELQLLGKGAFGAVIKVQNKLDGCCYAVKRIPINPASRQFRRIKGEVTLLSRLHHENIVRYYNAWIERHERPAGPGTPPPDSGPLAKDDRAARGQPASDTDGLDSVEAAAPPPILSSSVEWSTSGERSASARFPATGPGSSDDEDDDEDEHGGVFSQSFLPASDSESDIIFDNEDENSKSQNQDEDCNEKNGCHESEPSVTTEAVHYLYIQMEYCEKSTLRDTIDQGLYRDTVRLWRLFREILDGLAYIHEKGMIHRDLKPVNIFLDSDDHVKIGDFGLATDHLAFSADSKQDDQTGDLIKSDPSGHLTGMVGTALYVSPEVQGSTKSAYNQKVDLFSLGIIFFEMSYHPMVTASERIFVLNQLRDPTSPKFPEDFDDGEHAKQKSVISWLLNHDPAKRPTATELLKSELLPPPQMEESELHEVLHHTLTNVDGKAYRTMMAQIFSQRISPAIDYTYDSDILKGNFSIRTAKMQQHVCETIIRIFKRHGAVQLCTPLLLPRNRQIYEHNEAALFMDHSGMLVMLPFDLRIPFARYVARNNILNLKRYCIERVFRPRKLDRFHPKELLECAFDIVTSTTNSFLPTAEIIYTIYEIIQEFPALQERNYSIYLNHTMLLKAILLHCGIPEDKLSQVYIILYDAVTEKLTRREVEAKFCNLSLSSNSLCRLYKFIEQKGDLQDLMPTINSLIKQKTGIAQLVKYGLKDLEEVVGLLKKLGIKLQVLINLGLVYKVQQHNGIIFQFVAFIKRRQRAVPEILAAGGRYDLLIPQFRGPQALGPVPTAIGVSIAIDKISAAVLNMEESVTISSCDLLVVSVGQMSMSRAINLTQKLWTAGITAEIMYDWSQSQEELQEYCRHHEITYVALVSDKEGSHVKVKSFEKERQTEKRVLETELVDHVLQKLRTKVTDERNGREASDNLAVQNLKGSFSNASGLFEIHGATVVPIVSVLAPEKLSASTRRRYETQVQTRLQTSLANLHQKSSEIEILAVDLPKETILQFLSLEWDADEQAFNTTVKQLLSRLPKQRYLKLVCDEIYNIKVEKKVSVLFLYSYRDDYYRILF
T1 sequence (Q9P2K8 whole entry): as above
Chain of recombinant human PKR protein (P19525 whole entry): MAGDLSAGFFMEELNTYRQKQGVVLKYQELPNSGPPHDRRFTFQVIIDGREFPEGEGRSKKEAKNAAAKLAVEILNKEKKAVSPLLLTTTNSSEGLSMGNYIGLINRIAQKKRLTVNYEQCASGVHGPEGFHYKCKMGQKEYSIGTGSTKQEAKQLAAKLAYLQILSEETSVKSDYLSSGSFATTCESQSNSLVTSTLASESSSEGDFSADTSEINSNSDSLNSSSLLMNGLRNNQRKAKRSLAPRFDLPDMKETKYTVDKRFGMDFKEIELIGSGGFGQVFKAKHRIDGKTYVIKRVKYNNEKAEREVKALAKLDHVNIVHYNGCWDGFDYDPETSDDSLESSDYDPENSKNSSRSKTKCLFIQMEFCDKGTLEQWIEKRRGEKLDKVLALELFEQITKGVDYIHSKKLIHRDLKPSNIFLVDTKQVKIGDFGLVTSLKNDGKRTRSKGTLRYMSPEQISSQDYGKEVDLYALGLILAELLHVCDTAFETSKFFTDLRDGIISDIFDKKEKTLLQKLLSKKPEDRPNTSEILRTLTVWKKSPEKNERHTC

Consider `COc1ncc(Br)cc1S(=O)(=O)Nc1ccc(F)c(-n2c(=O)c3cnc(N)nc3n(C)c2=O)c1F` [Example 46, N-(3-(7-amino-1-methyl-2,4-dioxo-1,4-dihydropyrimido[4,5-d]pyrimidin-3(2H)-yl)-2,4-difluorophenyl)-5-bromo-2-methoxypyridine-3-sulfonamide], for which the IC50 in assay [1] is 300 to 1000 nM. Besides, on phosphorylated GCN2, the “inhibitory effect on the phosphorylated GCN2” value (“inhibitory effect” for short) is “excellent inhibitory effects” and the Phospho-GCN2 inhibition result is “◯”. The IC50 in assay [2] is below 100 nM.

In the case of `COc1ncc(Cl)cc1S(=O)(=O)Nc1ccc(F)c(-n2c(=O)c3cnc(N)nc3n(C)c2=O)c1F` [Example 44, N-(3-(7-amino-1-methyl-2,4-dioxo-1,4-dihydropyrimido[4,5-d]pyrimidin-3(2H)-yl)-2,4-difluorophenyl)-5-chloro-2-methoxypyridine-3-sulfonamide], the IC50 in assay [1] lay in the range of 300 to 1000 nM. For the same molecule, at phosphorylated GCN2, the “inhibitory effect” value is “excellent inhibitory effects” and the Phospho-GCN2 inhibition result is “◯”. Besides, the IC50 in assay [2] fell in the range of 100 to 300 nM.

`CNc1ncc2c(=O)n(-c3c(F)ccc(NS(=O)(=O)c4cc(Cl)cnc4OC)c3F)ccc2n1` [Example 32, 5-chloro-N-(2,4-difluoro-3-(2-(methylamino)-5-oxopirido[4,3-d]pyrimidin-6(5H)-yl)phenyl)-2-methoxypyridine-3-sulfonamide]: the values for the IC50 in assay [1] and in assay [2] were above 1000 nM and below 100 nM, respectively. At phosphorylated GCN2, the “inhibitory effect” value is reported as “excellent inhibitory effect”. In addition, the Phospho-GCN2 inhibition entry at phosphorylated GCN2 is “◯”.

Turning to `Nc1ncc2c(=O)n(-c3c(F)ccc(NS(=O)(=O)c4cccc5ccccc45)c3F)ccc2n1` [Example 29, N-(3-(2-amino-5-oxopirido[4,3-d]pyrimidin-6(5H)-yl)-2,4-difluorophenyl)naphthalene-1-sulfonamide], the half-maximal inhibitory concentration (IC50) in assay [1] was in the range of 100 to 300 nM. In addition, at phosphorylated GCN2, the “inhibitory effect” value was “excellent inhibitory effects” and the Phospho-GCN2 inhibition entry is “◯”. The IC50 in assay [2] was below 100 nM.

On to `Nc1ncc2c(=O)n(-c3c(F)ccc(NS(=O)(=O)c4cc(Cl)cnc4Cl)c3F)ccc2n1` [Example 27, N-(3-(2-amino-5-oxopirido[4,3-d]pyrimidin-6(5H)-yl)-2,4-difluorophenyl)-2,5-dichloropyridine-3-sulfonamide], for which the IC50 was above 1000 nM in assay [1] and below 100 nM in assay [2]. Further, the “inhibitory effect” value at phosphorylated GCN2 was “excellent inhibitory effect”. Moreover, the Phospho-GCN2 inhibition entry at phosphorylated GCN2 is “◯”.

Turning to `COc1ncc(Cl)cc1S(=O)(=O)Nc1ccc(F)c(-n2cc(C(F)F)c3nc(N)ncc3c2=O)c1F` [Example 22, N-(3-(2-amino-8-(difluoromethyl)-5-oxopirido[4,3-d]pyrimidin-6(5H)-yl)-2,4-difluorophenyl)-5-chloro-2-methoxypyridine-3-sulfonamide], in assay [1], the IC50 is 300 to 1000 nM. In addition, on phosphorylated GCN2, the “inhibitory effect” value is reported as “excellent inhibitory effects” and the Phospho-GCN2 inhibition entry was “◯”. Moreover, the IC50 in assay [2] was below 100 nM.

The record behind these values is patent publication US20260184706A1, “PHENYLSULFONAMIDE DERIVATIVES, PREPARATION METHOD THEREFOR, AND PHARMACEUTICAL COMPOSITION FOR PREVENTION OR TREATMENT OF CANCER CONTAINING SAME AS ACTIVE INGREDIENT” (Korea Research Institute of Chemical Technology, priority 2022, published 2026).
